{
  "source": "patent USRE28700E",
  "about": "“Antibiotic X-5108 for stimulating growth” (Hoffmann-La Roche Inc., priority 1972, dated 1976)",
  "key": {"mice": {"tested_on": "mice", "experiment": "Acute toxicity in mice (LD50), oral and subcutaneous", "format": "in vivo"}, "Streptococcus pyogenes": {"tested_on": "Streptococcus pyogenes", "experiment": "Activity against Streptococcus pyogenes infection (CD50)", "format": "in vivo"}, "Diplococcus pneumoniae": {"tested_on": "Diplococcus pneumoniae", "experiment": "Activity against Diplococcus pneumoniae (CD50)", "format": "in vivo"}, "Proteus vulgaris": {"tested_on": "Proteus vulgaris", "experiment": "Activity against gram-negative Proteus vulgaris infection", "conditions": "in vivo"}, "caecal coccidiosis": {"tested_on": "caecal coccidiosis", "experiment": "Activity in caecal coccidiosis", "conditions": "in vivo"}, "[1]": {"experiment": "Growth stimulating effect and feed efficiency in broiler chicks (Table 12)", "format": "in vivo, Cornish Cross Sexed Broiler Chicks", "procedure": "A basal ration was prepared containing the following named ingredients in the quantities hereinafter indicated: […]\nAntibiotic X-5108 was added to this ration in a ratio of 50 milligrams of antibiotic per kilogram of ration.\n(§1) The growth stimulating effects of antibiotic X-5108 were determined by allowing poultry to feed, ad libitum, on the antibiotic supplemented ration. In the test, one day old Cornish Cross Sexed Broiler Chicks were used. The test utilized 10 chicks per replicate (5 males and 5 females). The replicate groups were permitted access to the ration. A planned random distribution of the replicates was made to equalize factors of heating, light and position. The birds were observed over a two week period, with group weight being determined several times during the period and individual weights being determined at the end of 14 days. Feed consumption was also recorded and improvement in feed efficiency, as compared to the control, was calculated.\n(§2) The average gain for each test group is divided by the average gain of the negative control group and the quotient multiplied by 100 to yield the percent weight gain. Gain is the final body weight of the chick at the end of the 2 week test minus the beginning weight of 1 day of age. [formula]"}, "[2]": {"experiment": "Growth stimulating effect and feed efficiency in chicks, repeated trials at varied levels (Table 13)", "format": "in vivo, Cornish Cross Sexed Broiler Chicks", "conditions": "for Percent gain: control = 100", "procedure": "as §1, §2\nThe experiment described in Example 5, including the control, was repeated several times using the same basal ration as in Example 5. In these trials the level of antibiotic X-5108 was varied. The trial chickens were fed on supplemented feed rations containing the active ingredient in a ratio of 5, 10, 25, 50 and 100 mg. per kg. of feed. These trials were repeated to confirm the results. In the control test four replicates of ten birds were allowed to feed on a basal ration devoid of the antibiotic supplement. […] Feed consumption was also recorded and improvements in feed efficiency in comparison to the control were calculated. Table 13 records the results of this series of experiments."}, "Bacillus E": {"tested_on": "Bacillus E", "experiment": "Agar diffusion cup-plate assay, Bacillus E", "format": "cell-based", "procedure": "(§3) The activity of antibiotic X-5108 can be measured in vitro by its zone of inhibition against the gram-positive bacterium Bacillus E in the usual cup-plate agar diffusion method. Alternately the gram-positive bacterium Bacillus simplex can be employed. Both bacteria give approximately 20 mm. inhibition zones with an arbitrarily defined 1 unit/ml. solution. In this assay method, a culture of the test microorganism is grown in nutrient broth, for example, Trypticase Soy Broth, for 24 to 42 hours at 28° C. in a rotary shaker (100 ml. medium per 500 ml. Erlenmeyer flask). An inoculum concentration of 0.25 to 0.5 percent is used to inoculate the 4 ml. seed layer which is poured over a prehardened 20 ml. of base nutrient agar layer in a 100 ml. glass or disposable plastic Petri dish. The plates are refrigerated for at least two hours before cupping and filling with test solution containing the antibiotic. The plates are then incubated at 35° C. for 18 hours and zone diameters are measured to the nearest 0.5 mm. Calculations of unit per ml. potencies are then made from standard curves.\n(§4) The antimicrobial spectrum was determined by employing agar diffusion cup-plate assays as described earlier."}, "Bacillus simplex": {"tested_on": "Bacillus simplex", "experiment": "Agar diffusion cup-plate assay, Bacillus simplex", "format": "cell-based", "conditions": "arbitrarily defined 1 unit/ml. solution", "procedure": "as §3, §4"}, "[3]": {"tested_on": "a variety of microorganisms including gram-positive and gram-negative bacteria", "experiment": "Antimicrobial activity in general / biopotency", "format": "cell-based", "procedure": "as §3, §4"}, "[4]": {"experiment": "Growth promotion in poultry (general statement)", "format": "in vivo"}},
  "note": "Read-outs that look alike come from different tables or passages of the source.",
  "data": [
    {"smiles": "C/C=C\\C=C\\[C@@H]1O[C@](O)([C@H](CC)C(=O)NC/C=C/C=C(\\C)[C@@H](OC)[C@@H](C)[C@@H]2O[C@H](/C=C/C=C/C=C(\\C)C(=O)c3c(O)ccn(C)c3=O)[C@H](O)[C@@H]2O)[C@H](O)[C@H](O)C1(C)C", "note": "[Antibiotic X-5108]", "values": [
      {"measurement": "LD50", "setting": "mice; mice, oral", "result": "> 2,000 mg./kg."},
      {"measurement": "toxicity in mice (in words)", "setting": "mice; mice, orally and subcutaneously", "result": "relatively atoxic orally and subcutaneously"},
      {"measurement": "LD50", "setting": "mice; mice, subcutaneous", "result": "1,320 mg./kg."},
      {"measurement": "oral and parenteral toxicity (in words)", "setting": "mice; oral and parenteral", "result": "low oral and parenteral toxicity"},
      {"measurement": "CD50", "setting": "Streptococcus pyogenes; orally", "result": 52, "unit": "mg/kg"},
      {"measurement": "CD50", "setting": "Streptococcus pyogenes; subcutaneously", "result": 44, "unit": "mg/kg"},
      {"measurement": "antistreptococcal activity (in words)", "setting": "Streptococcus pyogenes; systemically (oral route) and local (subcutaneous route)", "result": "marked antistreptococcal activity"},
      {"measurement": "activity against pneumococcus (in words)", "setting": "Diplococcus pneumoniae; in vivo", "result": "activity against pneumococcus"},
      {"measurement": "CD50", "setting": "Diplococcus pneumoniae; p.o.", "result": 807, "unit": "mg/kg"},
      {"measurement": "CD50", "setting": "Diplococcus pneumoniae; sbc (subcutaneous)", "result": 283, "unit": "mg/kg"},
      {"measurement": "activity against Proteus vulgaris infection (in words)", "setting": "Proteus vulgaris", "result": "active"},
      {"measurement": "activity in caecal coccidiosis (in words)", "setting": "caecal coccidiosis", "result": "activity"},
      {"measurement": "growth rate compared to control (in words)", "setting": "[1]; 50 mg. per kilogram of feed", "result": "increased growth rate"},
      {"measurement": "improvement in feed efficiency", "setting": "[1]; 50 mg. per kilogram of feed, vs control", "result": 10, "unit": "%"},
      {"measurement": "Two-week gain, g. ±2SE", "setting": "[1]; 50 mg./kg. feed, average for 40 chicks, basal control 154±8", "result": "185 ± 12", "unit": "g"},
      {"measurement": "Feed efficiency", "setting": "[1]; 50 mg./kg. feed, two weeks, control 1.55", "result": 1.39},
      {"measurement": "Percent gain", "setting": "[1]; 50 mg./kg. feed, two weeks, control = 100", "result": 120, "unit": "%"},
      {"measurement": "Percent improved feed efficiency", "setting": "[1]; 50 mg./kg. feed, vs control", "result": "+12%"},
      {"measurement": "Percent improved feed eff.", "setting": "[2]; 10 mg./kg., 18 birds", "result": "+13%"},
      {"measurement": "Feed eff.", "setting": "[2]; 10 mg./kg., 18 birds, control 1.54", "result": 1.41},
      {"measurement": "Two-week gain", "setting": "[2]; 10 mg./kg., 18 birds, control 149", "result": 185, "unit": "g"},
      {"measurement": "Percent gain", "setting": "[2]; 10 mg./kg., 18 birds", "result": 124, "unit": "%"},
      {"measurement": "Percent improved feed eff.", "setting": "[2]; 25 mg./kg., 18 birds", "result": "+16%"},
      {"measurement": "Feed eff.", "setting": "[2]; 25 mg./kg., 18 birds, control 1.59", "result": 1.37},
      {"measurement": "Two-week gain", "setting": "[2]; 25 mg./kg., 18 birds, control 146", "result": 180, "unit": "g"},
      {"measurement": "Percent gain", "setting": "[2]; 25 mg./kg., 18 birds", "result": 123, "unit": "%"},
      {"measurement": "Percent improved feed eff.", "setting": "[2]; 50 mg./kg., 18 birds", "result": "+7%"},
      {"measurement": "Feed eff.", "setting": "[2]; 50 mg./kg., 18 birds, control 1.47", "result": 1.38},
      {"measurement": "Two-week gain", "setting": "[2]; 50 mg./kg., 18 birds, control 152", "result": 173, "unit": "g"},
      {"measurement": "Percent gain", "setting": "[2]; 50 mg./kg., 18 birds", "result": 114, "unit": "%"},
      {"measurement": "Percent improved feed eff.", "setting": "[2]; 50 mg./kg., 24 birds", "result": "+12%"},
      {"measurement": "Feed eff.", "setting": "[2]; 50 mg./kg., 24 birds, control 1.54", "result": 1.37},
      {"measurement": "Two-week gain", "setting": "[2]; 50 mg./kg., 24 birds, control 149", "result": 175, "unit": "g"},
      {"measurement": "Percent gain", "setting": "[2]; 50 mg./kg., 24 birds", "result": 117, "unit": "%"},
      {"measurement": "Percent improved feed eff.", "setting": "[2]; 100 mg./kg., 18 birds", "result": "+14%"},
      {"measurement": "Feed eff.", "setting": "[2]; 100 mg./kg., 18 birds, control 1.54", "result": 1.33},
      {"measurement": "Two-week gain", "setting": "[2]; 100 mg./kg., 18 birds, control 149", "result": 182, "unit": "g"},
      {"measurement": "Percent gain", "setting": "[2]; 100 mg./kg., 18 birds", "result": 122, "unit": "%"},
      {"measurement": "Percent improved feed eff.", "setting": "[2]; level not given, 18 birds", "result": "+9%"},
      {"measurement": "Feed eff.", "setting": "[2]; level not given, 18 birds, control 1.51", "result": 1.39},
      {"measurement": "Two-week gain", "setting": "[2]; level not given, 18 birds, control 149", "result": 183, "unit": "g"},
      {"measurement": "Percent gain", "setting": "[2]; level not given, 18 birds", "result": 123, "unit": "%"},
      {"measurement": "inhibition zone", "setting": "Bacillus E; arbitrarily defined 1 unit/ml. solution", "result": "approximately 20 mm."},
      {"measurement": "potency against Bacillus E", "setting": "Bacillus E; solid powder after butyl acetate extraction, Example 1", "result": 120, "unit": "units Bacillus E per mg."},
      {"measurement": "inhibition zone", "setting": "Bacillus simplex", "result": "approximately 20 mm."},
      {"measurement": "bipotency relative to starting material", "setting": "[3]; after countercurrent distribution, Example 3", "result": "approximately twice that of the starting material"},
      {"measurement": "antimicrobial spectrum (in words)", "setting": "[3]; agar diffusion cup-plate", "result": "broad antimicrobial spectrum"},
      {"measurement": "activity against a variety of microorganisms (in words)", "setting": "[3]; crude or more purified form", "result": "active against a variety of microorganisms including gram-positive and gram-negative bacteria"},
      {"measurement": "feed efficiency in poultry (in words)", "setting": "[4]", "result": "enhanced feed efficiency"},
      {"measurement": "growth promotion in poultry (in words)", "setting": "[4]", "result": "exhibits activity as a poultry growth promotant"},
      {"measurement": "growth promotion in poultry (in words)", "setting": "[4]; listed as antibiotic X-5108", "result": "marked growth promotion in poultry"}
    ]}
  ]
}
